From the supplement of paper PMC10627819

Key:
S. aureus DSM 20231 = assay: Bliss interaction score (quartile over a dose matrix) (fitness difference); higher = more antagonism (negative = synergy)
How it was run: (§1)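 Combination data were used to infer fitness under each single drug. Fitness is the OD595 at entry into stationary phase divided by the robust mean of the plate's no-drug wells, with a cap of 1. The Bliss score is the observed minus the expected product fitness, summarised by quartiles over technical, biological and donor/recipient replicates.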

S. aureus Newman = assay: as above
How it was run: as §1

B. subtilis 168 [1] = assay: as above
How it was run: as §1

S. pneumoniae D39V [2] = assay: as above
How it was run: as §1

B. subtilis 168 [3] = assay: fitness (endpoint OD595 vs no drug) (fraction); higher = more growth
How it was run: (§2)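 Fitness was defined as the optical density at the transition into stationary phase relative to the robust mean of no-drug control wells. Values were capped at 1. Cultures were started at OD595 0.01 in 384-well plates (30 µl, or 55 µl for S. pneumoniae) in TSB, LB Lennox or CY at 37 °C. OD595 was recorded every 30 min over 14 h, with the first reading subtracted as background.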

S. pneumoniae D39V [4] = assay: as above
How it was run: as §2

[5] = first compound 0.003875 µg/mL, partner 0.65 µg/mL, one replicate
[6] = first compound 0.003875 µg/mL, partner 1.3 µg/mL, one replicate
[7] = first compound 0.00775 µg/mL, partner 0.65 µg/mL, one replicate
[8] = first compound 0.00775 µg/mL, partner 1.3 µg/mL, one replicate
[9] = first compound 0.0155 µg/mL, partner 0.65 µg/mL
[10] = first compound 0.0155 µg/mL, partner 1.3 µg/mL
[11] = first compound 0.031 µg/mL, partner 0.65 µg/mL
[12] = first compound 0.062 µg/mL, partner 0.65 µg/mL
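Wherever Bliss interaction score (quartile over a dose matrix) is given: first quartile when negative (synergy) and third quartile when positive (antagonism).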

With `COc1cccc2c1C(=O)c1c(O)c3c(c(O)c1C2=O)C[C@@](O)(C(=O)CO)C[C@@H]3O[C@H]1C[C@H](N)[C@H](O)[C@H](C)O1` [Doxorubicin] + C[C@H]1COc2c(N3CCN(C)CC3)c(F)cc3c(=O)c(C(=O)O)cn1c23 [Levofloxacin] the Bliss interaction score (S. aureus DSM 20231) was 0.0678, the Bliss interaction score (S. aureus Newman) was 0.133 and the Bliss interaction score (B. subtilis 168 [1]) was 0.0423. The Bliss interaction score (S. pneumoniae D39V [2]) was -0.0424, the fitness (B. subtilis 168 [3]; first compound 0.625 µg/mL, partner 0.001 µg/mL, one replicate) was ≥ 1 and the fitness (B. subtilis 168 [3]; first compound 0.625 µg/mL, partner 0.002 µg/mL) was 0.93. For the same compound, the fitness (B. subtilis 168 [3]; first compound 0.625 µg/mL, partner 0.0039 µg/mL) was 0.927, the fitness (B. subtilis 168 [3]; first compound 0.625 µg/mL, partner 0.0078 µg/mL, one replicate) was 0.888 and the fitness (B. subtilis 168 [3]; first compound 0.625 µg/mL, partner 0.0312 µg/mL) was 0.0411. The fitness (B. subtilis 168 [3]; first compound 0.625 µg/mL, partner 0.0625 µg/mL) was 0.0463, the fitness (B. subtilis 168 [3]; first compound 0.625 µg/mL, partner 0.125 µg/mL) was 0.0495 and the fitness (B. subtilis 168 [3]; first compound 1.25 µg/mL, partner 0.001 µg/mL, one replicate) was 0.98. The fitness (B. subtilis 168 [3]; first compound 1.25 µg/mL, partner 0.002 µg/mL) was 0.901, the fitness (B. subtilis 168 [3]; first compound 1.25 µg/mL, partner 0.0039 µg/mL) was 0.873 and the fitness (B. subtilis 168 [3]; first compound 1.25 µg/mL, partner 0.0078 µg/mL, one replicate) was 0.894. The fitness (B. subtilis 168 [3]; first compound 1.25 µg/mL, partner 0.0312 µg/mL) was 0.0455, the fitness (B. subtilis 168 [3]; first compound 1.25 µg/mL, partner 0.0625 µg/mL) was 0.0566 and the fitness (B. subtilis 168 [3]; first compound 1.25 µg/mL, partner 0.125 µg/mL) was 0.0562. For the same compound, the fitness (B. subtilis 168 [3]; first compound 2.5 µg/mL, partner 0.001 µg/mL, one replicate) was 0.943, the fitness (B. subtilis 168 [3]; first compound 2.5 µg/mL, partner 0.002 µg/mL) was 0.791 and the fitness (B. subtilis 168 [3]; first compound 2.5 µg/mL, partner 0.0039 µg/mL) was 0.73. For the same compound, the fitness (B. subtilis 168 [3]; first compound 2.5 µg/mL, partner 0.0078 µg/mL, one replicate) was 0.567, the fitness (B. subtilis 168 [3]; first compound 2.5 µg/mL, partner 0.0312 µg/mL) was 0.031 and the fitness (B. subtilis 168 [3]; first compound 2.5 µg/mL, partner 0.0625 µg/mL) was 0.0389. It also gave a fitness (B. subtilis 168 [3]; first compound 2.5 µg/mL, partner 0.125 µg/mL) of 0.0379, a fitness (S. pneumoniae D39V [4]; first compound 0.25 µg/mL, partner 0.1725 µg/mL) of 0.853 and a fitness (S. pneumoniae D39V [4]; first compound 0.25 µg/mL, partner 0.2 µg/mL) of 0.904. For the same compound, the fitness (S. pneumoniae D39V [4]; first compound 0.25 µg/mL, partner 0.345 µg/mL) was 0.776, the fitness (S. pneumoniae D39V [4]; first compound 0.25 µg/mL, partner 0.4 µg/mL) was 0.834 and the fitness (S. pneumoniae D39V [4]; first compound 0.25 µg/mL, partner 0.69 µg/mL) was 0.509. The fitness (S. pneumoniae D39V [4]; first compound 0.5 µg/mL, partner 0.1725 µg/mL) was 0.941, the fitness (S. pneumoniae D39V [4]; first compound 0.5 µg/mL, partner 0.2 µg/mL) was 0.942 and the fitness (S. pneumoniae D39V [4]; first compound 0.5 µg/mL, partner 0.345 µg/mL) was 0.871. The fitness (S. pneumoniae D39V [4]; first compound 0.5 µg/mL, partner 0.4 µg/mL) was 0.831, the fitness (S. pneumoniae D39V [4]; first compound 0.5 µg/mL, partner 0.69 µg/mL) was 0.571 and the fitness (S. pneumoniae D39V [4]; first compound 1 µg/mL, partner 0.1725 µg/mL) was 0.875. For the same compound, the fitness (S. pneumoniae D39V [4]; first compound 1 µg/mL, partner 0.2 µg/mL) was 0.854, the fitness (S. pneumoniae D39V [4]; first compound 1 µg/mL, partner 0.345 µg/mL) was 0.798 and the fitness (S. pneumoniae D39V [4]; first compound 1 µg/mL, partner 0.4 µg/mL) was 0.736. For the same compound, the fitness (S. pneumoniae D39V [4]; first compound 1 µg/mL, partner 0.69 µg/mL) was 0.548 and the fitness (S. pneumoniae D39V [4]; first compound 1 µg/mL, partner 0.8 µg/mL) was 0.342.
Work on `C[C@H]1c2cccc(O)c2C(=O)C2=C(O)[C@]3(O)C(=O)C(C(N)=O)=C(O)[C@@H](N(C)C)[C@@H]3[C@@H](O)[C@@H]21` [Doxycycline] + CN(C)c1cc(NC(=O)CNC(C)(C)C)c(O)c2c1C[C@H]1C[C@H]3[C@H](N(C)C)C(O)=C(C(N)=O)C(=O)[C@@]3(O)C(O)=C1C2=O [Tigecycline] yielded a Bliss interaction score (S. aureus DSM 20231) of -0.104, a Bliss interaction score (S. aureus Newman) of -0.0649 and a Bliss interaction score (B. subtilis 168 [1]) of 0.0765. It also gave a Bliss interaction score (S. pneumoniae D39V [2]) of 0.0303, a fitness (B. subtilis 168 [3]; first compound 0.02 µg/mL, partner 0.039 µg/mL) of 0.94 and a fitness (B. subtilis 168 [3]; first compound 0.02 µg/mL, partner 0.078 µg/mL) of 0.818. It also gave a fitness (B. subtilis 168 [3]; first compound 0.02 µg/mL, partner 0.125 µg/mL, one replicate) of 0.99, a fitness (B. subtilis 168 [3]; first compound 0.02 µg/mL, partner 0.156 µg/mL) of 0.85 and a fitness (B. subtilis 168 [3]; first compound 0.02 µg/mL, partner 0.25 µg/mL, one replicate) of 0.873. It also gave a fitness (B. subtilis 168 [3]; first compound 0.02 µg/mL, partner 0.5 µg/mL, one replicate) of 0.962, a fitness (B. subtilis 168 [3]; first compound 0.04 µg/mL, partner 0.039 µg/mL) of 0.824 and a fitness (B. subtilis 168 [3]; first compound 0.04 µg/mL, partner 0.078 µg/mL) of 0.773. For the same compound, the fitness (B. subtilis 168 [3]; first compound 0.04 µg/mL, partner 0.125 µg/mL, one replicate) was 0.994, the fitness (B. subtilis 168 [3]; first compound 0.04 µg/mL, partner 0.156 µg/mL) was 0.792 and the fitness (B. subtilis 168 [3]; first compound 0.04 µg/mL, partner 0.25 µg/mL, one replicate) was 0.849. The fitness (B. subtilis 168 [3]; first compound 0.04 µg/mL, partner 0.5 µg/mL, one replicate) was 0.895, the fitness (B. subtilis 168 [3]; first compound 0.08 µg/mL, partner 0.078 µg/mL) was 0.619 and the fitness (B. subtilis 168 [3]; first compound 0.08 µg/mL, partner 0.125 µg/mL, one replicate) was 0.761. It also gave a fitness (B. subtilis 168 [3]; first compound 0.08 µg/mL, partner 0.156 µg/mL) of 0.635, a fitness (B. subtilis 168 [3]; first compound 0.08 µg/mL, partner 0.25 µg/mL, one replicate) of 0.611 and a fitness (B. subtilis 168 [3]; first compound 0.08 µg/mL, partner 0.5 µg/mL, one replicate) of 0.697. The fitness (S. pneumoniae D39V [4]; [5]) was ≥ 1, the fitness (S. pneumoniae D39V [4]; [6]) was ≥ 1 and the fitness (S. pneumoniae D39V [4]; first compound 0.003875 µg/mL, partner 2.6 µg/mL, one replicate) was ≥ 1. It also gave a fitness (S. pneumoniae D39V [4]; [7]) of 1, a fitness (S. pneumoniae D39V [4]; [8]) of 0.963 and a fitness (S. pneumoniae D39V [4]; first compound 0.00775 µg/mL, partner 2.6 µg/mL, one replicate) of 0.954. It also gave a fitness (S. pneumoniae D39V [4]; [9]) of 0.969, a fitness (S. pneumoniae D39V [4]; [10]) of 0.922 and a fitness (S. pneumoniae D39V [4]; first compound 0.0155 µg/mL, partner 2.6 µg/mL) of 0.903. The fitness (S. pneumoniae D39V [4]; [11]) was 0.902, the fitness (S. pneumoniae D39V [4]; first compound 0.031 µg/mL, partner 1.3 µg/mL) was 0.831 and the fitness (S. pneumoniae D39V [4]; first compound 0.031 µg/mL, partner 2.6 µg/mL) was 0.796. The fitness (S. pneumoniae D39V [4]; [12]) was 0.885, the fitness (S. pneumoniae D39V [4]; first compound 0.062 µg/mL, partner 1.3 µg/mL) was 0.773 and the fitness (S. pneumoniae D39V [4]; first compound 0.062 µg/mL, partner 2.6 µg/mL) was 0.732.
`C[C@H]1c2cccc(O)c2C(=O)C2=C(O)[C@]3(O)C(=O)C(C(N)=O)=C(O)[C@@H](N(C)C)[C@@H]3[C@@H](O)[C@@H]21` [Doxycycline] + CN1C2=CC=CC=C2N=C3C1=CC=CC3=O [Pyocyanin] gave a Bliss interaction score (S. aureus DSM 20231) of 0.0677, a Bliss interaction score (S. aureus Newman) of -0.0231 and a Bliss interaction score (B. subtilis 168 [1]) of 0.092. The Bliss interaction score (S. pneumoniae D39V [2]) was 0.127, the fitness (B. subtilis 168 [3]; first compound 0.02 µg/mL, partner 1.25 µg/mL) was 0.875 and the fitness (B. subtilis 168 [3]; first compound 0.02 µg/mL, partner 2.5 µg/mL) was 0.828. For the same compound, the fitness (B. subtilis 168 [3]; first compound 0.02 µg/mL, partner 5 µg/mL) was 0.737, the fitness (B. subtilis 168 [3]; first compound 0.04 µg/mL, partner 1.25 µg/mL) was 0.775 and the fitness (B. subtilis 168 [3]; first compound 0.04 µg/mL, partner 2.5 µg/mL) was 0.692. For the same compound, the fitness (B. subtilis 168 [3]; first compound 0.04 µg/mL, partner 5 µg/mL) was 0.605, the fitness (B. subtilis 168 [3]; first compound 0.08 µg/mL, partner 1.25 µg/mL) was 0.613 and the fitness (B. subtilis 168 [3]; first compound 0.08 µg/mL, partner 2.5 µg/mL) was 0.559. The fitness (B. subtilis 168 [3]; first compound 0.08 µg/mL, partner 5 µg/mL) was 0.36, the fitness (S. pneumoniae D39V [4]; first compound 0.003875 µg/mL, partner 0.325 µg/mL, one replicate) was ≥ 1 and the fitness (S. pneumoniae D39V [4]; [5]) was ≥ 1. The fitness (S. pneumoniae D39V [4]; [6]) was 0.741, the fitness (S. pneumoniae D39V [4]; first compound 0.00775 µg/mL, partner 0.325 µg/mL, one replicate) was ≥ 1 and the fitness (S. pneumoniae D39V [4]; [7]) was 0.997. The fitness (S. pneumoniae D39V [4]; [8]) was 0.737, the fitness (S. pneumoniae D39V [4]; first compound 0.0155 µg/mL, partner 0.325 µg/mL) was ≥ 1 and the fitness (S. pneumoniae D39V [4]; [9]) was ≥ 1. For the same compound, the fitness (S. pneumoniae D39V [4]; [10]) was 0.823, the fitness (S. pneumoniae D39V [4]; first compound 0.031 µg/mL, partner 0.325 µg/mL) was 0.941 and the fitness (S. pneumoniae D39V [4]; [11]) was 0.97. It also gave a fitness (S. pneumoniae D39V [4]; first compound 0.031 µg/mL, partner 1.3 µg/mL, one replicate) of 0.854, a fitness (S. pneumoniae D39V [4]; first compound 0.062 µg/mL, partner 0.325 µg/mL) of 0.857 and a fitness (S. pneumoniae D39V [4]; [12]) of 0.87. The fitness (S. pneumoniae D39V [4]; first compound 0.062 µg/mL, partner 1.3 µg/mL, one replicate) was 0.694.
